Laboratory results: article PMC11062899, “De novo development of small cyclic peptides that are orally bioavailable” (Nature Chemical Biology, 2023)
“And” between values parts separate entries of the source, which are not always exact repeats. Equal values may be shown once.

Columns and labels:
[1] = target: human α-thrombin (Homo sapiens, UniProt P00734); assay: Protease inhibition, Ki for human α-thrombin (fluorogenic substrate Z-Gly-Gly-Arg-AMC); format: biochemical; conditions: replicates R1-R3
Procedure, shortened: (§1)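 Ki derived through Cheng–Prusoff from IC50s (four-parameter logistic fit) against activity of peptide-free controls. Product fluorescence was read every 3 min over 30 min at 25 °C, substrate Z-Gly-Gly-Arg-AMC at 50 μM. Enzyme was 2 nM human or 3 nM rat α-thrombin, pH 7.4 buffer.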

[2] = target: T1, rat α-thrombin (Rattus norvegicus, UniProt P18292); assay: Protease inhibition, Ki for rat α-thrombin (fluorogenic substrate Z-Gly-Gly-Arg-AMC); format: biochemical; conditions: replicates R1-R3
T1 construct: rat α-thrombin (Molecular Innovations) were used at final concentrations of 2 nM and 3 nM; purchased Molecular Innovations
Procedure, shortened: as §1

[3] = target: T2, porcine pepsin (Sus scrofa, UniProt P00791); assay: Peptide stability in simulated gastric fluid (SGF); format: in vitro ADME
T2 construct: 0.32 g of porcine pepsin (Sigma-Aldrich, P7125) was dissolved under gentle agitation; purchased Sigma-Aldrich P7125
T2 sequence (P00791 60-385): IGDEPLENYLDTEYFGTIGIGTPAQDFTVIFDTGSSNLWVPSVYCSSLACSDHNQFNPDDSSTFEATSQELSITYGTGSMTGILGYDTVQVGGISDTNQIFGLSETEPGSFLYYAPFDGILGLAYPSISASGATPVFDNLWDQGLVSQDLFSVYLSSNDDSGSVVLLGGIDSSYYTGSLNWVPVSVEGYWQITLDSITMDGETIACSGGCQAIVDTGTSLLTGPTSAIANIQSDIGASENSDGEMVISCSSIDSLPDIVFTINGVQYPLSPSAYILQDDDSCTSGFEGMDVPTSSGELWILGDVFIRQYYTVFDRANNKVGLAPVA
Method: (§2) Simulated gastric and intestinal fluids were prepared according to the States Pharmacopeia specifications (Test Solutions, United States Pharmacopeia 35, NF 30, 2012). SGF: 0.2 g of sodium chloride was dissolved in 50 ml of water, and the pH was adjusted to 1.2 by addition of 0.7 ml of 10 M hydrochloric acid. Then, 0.32 g of porcine pepsin (Sigma-Aldrich, P7125) was dissolved under gentle agitation, and the volume was filled up to 100 ml with Milli-Q water. SIF: 0.68 g of monobasic potassium phosphate was dissolved in 25 ml of Milli-Q water, and the pH was adjusted to 6.8 by adding 7.7 ml of a 0.2 M sodium hydroxide solution. Next, 1 g of porcine pancreatin (Sigma-Aldrich, P3292) was added under gentle agitation, and the volume was adjusted to 100 ml with Milli-Q water to afford a fine suspension. To test the stability in simulated gastrointestinal fluids, 396 μl of SGF or SIF was pre-heated at 37 °C for 10 min, and 4 μl of a 1 mM peptide solution in DMSO was added. […] Supernatant was analyzed by LC–MS to measure the peptide concentrations at the different timepoints. Residual peptide was calculated by normalizing the concentrations measured at T1 to T0.

[4] = Peptide stability in simulated intestinal fluid (SIF); format: in vitro ADME, porcine; conditions: simulated gi fluid; 8 h, 37 °C, pH 6.8; read-out: Proteolytic stability: SIF (8 h) % remaining
Method: as §2

[5] = test system: porcine pancreatin; assay: as above; format: in vitro ADME; conditions: after 8 h vs 0 h (TIC); average of R1-R3
Method: as §2

[6] = Passive artificial membrane permeability (PAMPA)
[7] = Metabolic stability in rat liver microsomes (RLMs); conditions: rat, microsomes
[8] = peptide 1.33E+02 uM, slope of proteolytic substrate cleavage over time

Human alpha thrombin inhibition, slope normalized to DMSO ([1]; peptide 1.02E-03 uM): 100.6 and 98.3 and 99.0
Human alpha thrombin inhibition, slope normalized to DMSO ([1]; peptide 1.04E+00 uM): 68.1 and 68.7 and 68.9
Human alpha thrombin inhibition, slope normalized to DMSO ([1]; peptide 1.27E-04 uM): 101.1 and 97.6 and 104.9
Human alpha thrombin inhibition, slope normalized to DMSO ([1]; peptide 1.30E-01 uM): 90.7 and 100.7 and 97.5
Human alpha thrombin inhibition, slope normalized to DMSO [1, 8]: 4.8 and 5.5 and 1.6
Human alpha thrombin inhibition, slope normalized to DMSO ([1]; peptide 1.63E-02 uM): 110.6 and 96.8 and 100.1
Human alpha thrombin inhibition, slope normalized to DMSO ([1]; peptide 1.67E+01 uM): 12.1 and 12.4 and 14.6
Human alpha thrombin inhibition, slope normalized to DMSO ([1]; peptide 2.03E-03 uM): 101.2 and 99.3 and 100.0
Human alpha thrombin inhibition, slope normalized to DMSO ([1]; peptide 2.08E+00 uM): 65.0 and 52.9 and 51.5
Human alpha thrombin inhibition, slope normalized to DMSO ([1]; peptide 2.54E-04 uM): 99.3 and 97.7 and 101.2
Human alpha thrombin inhibition, slope normalized to DMSO ([1]; peptide 2.60E-01 uM): 95.0 and 89.4 and 94.7
Human alpha thrombin inhibition, slope normalized to DMSO ([1]; peptide 3.18E-05 uM): 97.8 and 94.7 and 100.8
Human alpha thrombin inhibition, slope normalized to DMSO ([1]; peptide 3.26E-02 uM): 94.1 and 101.2 and 106.3
Human alpha thrombin inhibition, slope normalized to DMSO ([1]; peptide 3.33E+01 uM): 8.2 and 10.1 and 12.2
Human alpha thrombin inhibition, slope normalized to DMSO ([1]; peptide 4.07E-03 uM): 102.2 and 130.5 and 101.9
Human alpha thrombin inhibition, slope normalized to DMSO ([1]; peptide 4.17E+00 uM): 34.4 and 33.3 and 35.3
Human alpha thrombin inhibition, slope normalized to DMSO ([1]; peptide 5.09E-04 uM): 99.7 and 107.7 and 101.3
Human alpha thrombin inhibition, slope normalized to DMSO ([1]; peptide 5.21E-01 uM): 82.1 and 87.9 and 83.3
Human alpha thrombin inhibition, slope normalized to DMSO ([1]; peptide 6.36E-05 uM): 100.1 and 97.7 and 104.2
Human alpha thrombin inhibition, slope normalized to DMSO ([1]; peptide 6.51E-02 uM): 100.7 and 90.2 and 100.6
Human alpha thrombin inhibition, slope normalized to DMSO ([1]; peptide 6.67E+01 uM): 5.7 and 5.6 and 9.1
Human alpha thrombin inhibition, slope normalized to DMSO ([1]; peptide 8.14E-03 uM): 98.8 and 99.9 and 103.6
Human alpha thrombin inhibition, slope normalized to DMSO ([1]; peptide 8.33E+00 uM): 23.8 and 18.1 and 21.3
Rat alpha thrombin inhibition, slope normalized to DMSO [2, 8]: 1.8 and 3.0 and 9.6
Rat alpha thrombin inhibition, slope normalized to DMSO ([2]; peptide 1.67E+01 uM): 7.1 and 6.4 and 13.3
Rat alpha thrombin inhibition, slope normalized to DMSO ([2]; peptide 2.08E+00 uM): 34.4 and 33.4 and 32.9
Rat alpha thrombin inhibition, slope normalized to DMSO ([2]; peptide 3.33E+01 uM): 4.1 (2×) and 10.8
Rat alpha thrombin inhibition, slope normalized to DMSO ([2]; peptide 4.17E+00 uM): 21.9 and 19.6 and 23.7
Rat alpha thrombin inhibition, slope normalized to DMSO ([2]; peptide 6.67E+01 uM): 2.7 and 2.8 and 9.5
Rat alpha thrombin inhibition, slope normalized to DMSO ([2]; peptide 8.33E+00 uM): 12.5 and 11.7 and 18.6
SGF stability, Residual peptide Average ([3]; after 8 h vs 0 h (TIC), average of R1-R3): 98.62
SGF stability, Residual peptide ([3]; after 8 h vs 0 h (TIC), single replicates R1-R3): 100.84 and 98.47 and 96.53
remaining at 8 h ([3]; simulated gi fluid, 8 h, 37 °C, pH 1.2, read-out: Proteolytic stability: SGF (8 h) % remaining): 99 ± 2%
remaining at 8 h [4]: 88 ± 18%
SIF stability, Residual peptide Average [5]: 87.61
PAMPA permeability: % permeability ([6]; 50 μM, 12–18 h, acceptor concentration relative to equilibrium): 20 ± 10%
Papp at 50 μM ([6]; PAMPA, pH 7.4): 1.35 ×10⁻⁶ cm/s
Permeability% Average ([6]; PAMPA, average of R1-R3): 20.3%
Permeability% R1 ([6]; PAMPA, replicate R1, TIC of top well sample relative to sample at theoretical equilibrium): 29.62%
Permeability% R3 ([6]; PAMPA, replicate R3, TIC of top well sample relative to sample at theoretical equilibrium): 22.19%
microsomal CLint ([7]; CL (ul/min/mg protein) R1, RLM CL, replicate R1): 87.8 µL/min/mg
microsomal CLint ([7]; CL (ul/min/mg protein) R2, RLM CL, replicate R2): 76.3 µL/min/mg
microsomal CLint ([7]; CL (ul/min/mg protein) R3, RLM CL, replicate R3): 81.9 µL/min/mg
half-life ([7]; Half Life (min) R1, RLM metabolic stability, replicate R1, 0-60 min): 15.8 min
half-life ([7]; Half Life (min) R2, RLM metabolic stability, replicate R2, 0-60 min): 18.2 min
half-life ([7]; Half Life (min) R3, RLM metabolic stability, replicate R3, 0-60 min): 16.9 min
half-life ([7]; Metabolic stability: Half life T1/2 (min), RLMs, mean and SD, three measurements): 17 ± 1 min
microsomal CLint ([7]; Metabolic stability: RLM CL (ul/min/mg), RLMs, mean and SD, three measurements): 82 ± 5 µL/min/mg
SMILES: O=C1CC2CCN(CC2)C(=O)[C@H](Cc2ccccc2)NC(=O)[C@@H](NC(=O)c2ccc(Cl)s2)CSCc2cccc(n2)CSCCN1 [compound 15]
